The source of these data is patent US20060019885A1, “Modified bryodin 1 with reduced immunogenicity” (priority 2002, published 2006).

In the assay the test system is peripheral blood mononuclear cells (PBMCs), containing antigen presenting cells (APCs) and T-cells. Put plainly: naïve human T-cell proliferation assay (3H-thymidine incorporation, stimulation index). The format is cell-based. As to conditions: for predicted ranking of the most immunodominant regions: from numbers of responding naïve donors and crystallographic B-factor analysis; for number of donor samples reactive / percent of donor samples reactive: of 21 naïve donor PBMC samples, positive response SI>2. The source says:
This approach has proven to be a particularly effective method and is disclosed herein as an embodiment of the invention. The method can be applied to test part of the sequence, for example a sub-set of bryodin 1 peptides such as all or some of those listed in FIG. 1; or the method may be applied to test entire sequence. In the present studies, the method has involved the testing of overlapping bryodin 1 derived peptide sequences in a scheme so as to scan and test the entire bryodin 1 sequence (including peptides representing the N-terminal pro-pepeptide). The synthetic peptides are tested for their ability to evoke a proliferative response in human T-cell cultured in vitro. Where this type of approach is conducted using naïve human T-cells taken from healthy donors, the inventors have established that in the operation of such an assay, a stimulation index equal to or greater than 2.0 is a useful measure of induced proliferation. The stimulation index is conventionally derived by division of the proliferation score (e.g. counts per minute of radioactivity if using ^3H-thymidine incorporation) measured to the test peptide by the score measured in cells not contacted with a test peptide.
The interaction between MHC, peptide and T-cell receptor (TCR) provides the structural basis for the antigen specificity of T-cell recognition. T-cell proliferation assays test the binding of peptides to MHC and the recognition of MHC/peptide complexes by the TCR. In vitro T-cell proliferation assays of the present example, involve the stimulation of peripheral blood mononuclear cells (PBMCs), containing antigen presenting cells (APCs) and T-cells. Stimulation is conducted in vitro using synthetic peptide antigens, and in some experiments whole protein antigen. Stimulated T-cell proliferation is measured using ^3H-thymidine (^3H-Thy) and the presence of incorporated ^3H-Thy assessed using scintillation counting of washed fixed cells.
Buffy coats from human blood stored for less than 12 hours were obtained from the National Blood Service (Addenbrooks Hospital, Cambridge, UK). Ficoll-paque was obtained from Amersham Pharmacia Biotech (Amersham, UK). Serum free AIM V media for the culture of primary human lymphocytes and containing L-glutamine, 50 μg/ml streptomycin, 10 μg/ml gentomycin and 0.1% human serum albumin was from Gibco-BRL (Paisley, UK). Synthetic peptides were obtained from Eurosequence (Groningen, The Netherlands) and Babraham Technix (Cambridge, UK).
Erythrocytes and leukocytes were separated from plasma and platelets by gentle centrifugation of buffy coats. The top phase (containing plasma and platelets) was removed and discarded. Erythrocytes and leukocytes were diluted 1:1 in phosphate buffered saline (PBS) before layering onto 15 ml ficoll-paque (Amersham Pharmacia, Amersham UK). Centrifugation was done according to the manufacturers recommended conditions and PBMCs were harvested from the serum+PBS/ficoll paque interface. PBMCs were mixed with PBS (1:1) and collected by centrifugation. The supernatant was removed and discarded and the PBMC pellet resuspended in 50 ml PBS. Cells were again pelleted by centrifugation and the PBS supernatant discarded. Cells were resuspended using 50 ml AIM V media and at this point counted and viability assessed using trypan blue dye exclusion. Cells were again collected by centrifugation and the supernatant discarded. Cells were resuspended for cryogenic storage at a density of 3×10^7 per ml. The storage medium was 90% (v/v) heat inactivated AB human serum (Sigma, Poole, UK) and 10% (v/v) DMSO (Sigma, Poole, UK). Cells were transferred to a regulated freezing container (Sigma) and placed at −70° C. overnight. When required for use, cells were thawed rapidly in a water bath at 37° C. before transferring to 10 ml pre-warmed AIM V medium.
PBMC were stimulated with protein and peptide antigens in a 96 well flat bottom plate at a density of 2×10^5 PBMC per well. […]

In the case of ATEAAKFVFKDAKKK [R2], the “predicted ranking of the most immunodominant regions” value (shortened to “predicted ranking”) is reported as “relatively less immunogenic”, the “number of donor samples reactive” value is recorded as 3 donor samples and the “percent of donor samples reactive” value was found to be 14%.
As for ATISLENNWSALSKQIQIAST [R5], the “predicted ranking” value is on record as “most immunogenic”, the “number of donor samples reactive” value is 4 donor samples and the “percent of donor samples reactive” value is given as 19%.
As for ERLQTAAGKIRENIPLGLPALDSA [R3], the “number of donor samples reactive” value worked out at 3 donor samples and the “percent of donor samples reactive” value is recorded as 14%.
For ITTLYYYTASSAASALLVLIQSTAESA [R4], in that order: 5 donor samples and 24%.
As to RYTLLHLTNYADETISVAVDV [R1], the “predicted ranking” value was “most immunogenic”, the “number of donor samples reactive” value is 6 donor samples and the “percent of donor samples reactive” value is “over 28%”.
